The values that follow are results of earlier work, collected in patent US6531115B1, “Analgesic and refreshing herbal composition and a process for preparing the same” (Council of Scientific & Industrial Research, priority 2001, dated 2003).

One series concerns artificial toothache. The conditions noted are these: rabbits having artificial toothache.
For `CC12CCC(CC1)C(C)(C)O2` [eucalyptol], the “sedative effect on toothache” value is given as “weak”.

For the compound `Oc1ccccc1` [Phenol], the “sedative effect on toothache” value was “strongest action”.

As for `CC12CCC(CC1=O)C2(C)C` (stereo not drawn) [camphor], the “sedative effect on toothache” value is reported as “no sedative effect”.

Regarding `CC1CCC(C(C)C)C(O)C1` (stereo not drawn) [menthol], the “sedative effect on toothache” value was “weak”.

The subject of another series is toothache. The conditions noted are these: in vivo.
Take `CCO` [alcohol]: the pain-relieving activity result is “almost no effect”.

Turning to `Cc1ccc(C(C)C)c(O)c1` [Thymol], the pain-relieving activity result was “very weak”.
